Laboratory results: patent US8280710B2, “Method for determining thermal stability of collagen or collagen-like peptide” (University of Medicine and Dentistry of New Jersey, priority 2005, dated 2012)
Non-standard residues stand in square brackets, D forms with d. Residues, ends and D or L forms follow the SMILES beside them. No end group written: not given here. Hyp = O=C(O)[C@@H]1C[C@@H](O)CN1

Settings: for Tm^obs: peptide of Table 3, defined standard conditions; for experimentally observed Tm of Gly-Xaa1-Xaa2 tripeptide unit in a triple helix: host-guest peptide, (Gly-Pro-Hyp)8 host, c=1 mg/ml in phosphate-buffered saline, pH 7.0, heating rate 0.1° C./minute
Experimental: The propensity measurements for all 20 amino acid residues in the Xaa1 position in a Gly-Xaa1-Hyp context and all 20 amino acid residues in the Xaa2 position in a Gly-Pro-Xaa2 context were determined by measuring thermal stability of host-guest peptides (Persikov, et al. (2000) supra).
The Tm values of all host-guest peptides were measured under a set of standard conditions, with c=1 mg/ml in phosphate-buffered saline, pH 7.0, and with a heating rate average of 0.1° C./minute (Persikov, et al. (2004) supra).

Tm^obs	experimentally observed Tm of Gly-Xaa1-Xaa2 tripeptide unit in a triple helix	decrease in stability relative to Gly-Pro-Hyp	Compound
30.8 °C	–	–	CC(=O)NCC(=O)N[C@@H](C)C(=O)N[C@@H](CCCNC(=N)N)C(=O)NCC(=O)N1CCC[C@H]1C(=O)N[C@@H](C)C(=O)NCC(=O)N1CCC[C@H]1C(=O)N[C@@H](CCC(N)=O)C(=O)NCC(=O)N1CCC[C@H]1C(=O)N[C@@H](CCCNC(=N)N)C(=O)NCC(=O)N[C@@H](CC(=O)O)C(=O)N[C@@H](CCCCN)C(=O)NCC(=O)N[C@@H](CCC(=O)O)C(=O)N[C@H](C(=O)NCC(=O)N1CCC[C@H]1C(=O)N1C[C@H](O)C[C@H]1C(=O)NCC(=O)N1CCC[C@H]1C(=O)N1C[C@H](O)C[C@H]1C(=O)NCC(=O)N1CCC[C@H]1C(=O)N1C[C@H](O)C[C@H]1C(=O)NCC(=O)N1CCC[C@H]1C(=O)N1C[C@H](O)C[C@H]1C(=O)NCC(=O)N[C@H](C(N)=O)C(C)C)[C@@H](C)O [T1-904, Ac-GAR-GPA-GPQ-GPR-GDK-GET-(GPO)4-GV-NH2] (Ac-GARGPAGPQGPRGDKGETGP[Hyp]GP[Hyp]GP[Hyp]GP[Hyp]GV-NH2)
<4 °C	–	–	CC[C@H](C)[C@H](NC(=O)CNC(=O)[C@H](CO)NC(=O)[C@@H]1CCCN1C(=O)CNC(=O)[C@@H]1C[C@@H](O)CN1C(=O)[C@@H]1CCCN1C(=O)CNC(=O)[C@@H](NC(=O)[C@H](CCCNC(=N)N)NC(=O)CNC(=O)[C@H](C)NC(=O)[C@H](C)NC(=O)CNC(=O)[C@@H]1C[C@@H](O)CN1C(=O)[C@H](Cc1ccccc1)NC(=O)CNC(C)=O)[C@@H](C)O)C(=O)N[C@@H](CO)C(=O)NCC(=O)N1CCC[C@H]1C(=O)N1C[C@H](O)C[C@H]1C(=O)NCC(=O)N1CCC[C@H]1C(=O)N1C[C@H](O)C[C@H]1C(=O)NCC(=O)N1CCC[C@H]1C(=O)N1C[C@H](O)C[C@H]1C(=O)NCC(=O)N1CCC[C@H]1C(=O)N1C[C@H](O)C[C@H]1C(=O)NCC(=O)N[C@H](C(N)=O)C(C)C [T1A2-697, Ac-GFO-GAA-GRT-GPO-GPS-GIS-(GPO)4-GV-NH2] (Ac-GF[Hyp]GAAGRTGP[Hyp]GPSGISGP[Hyp]GP[Hyp]GP[Hyp]GP[Hyp]GV-NH2)
<4 °C	–	–	CC[C@H](C)[C@H](NC(=O)CNC(=O)[C@H](CC(C)C)NC(=O)[C@@H]1CCCN1C(=O)CNC(=O)[C@@H]1C[C@@H](O)CN1C(=O)[C@H](C)NC(=O)CNC(=O)[C@@H]1C[C@@H](O)CN1C(=O)[C@@H]1CCCN1C(=O)CNC(C)=O)C(=O)N[C@@H](C)C(=O)NCC(=O)N[C@H](C(=O)N[C@H](C(=O)NCC(=O)N[C@@H](C)C(=O)N[C@@H](CCCNC(=N)N)C(=O)NCC(=O)N[C@@H](CC(C)C)C(=O)N[C@@H](C)C(=O)NCC(=O)N1CCC[C@H]1C(=O)N1C[C@H](O)C[C@H]1C(=O)NCC(=O)N1CCC[C@H]1C(=O)N1C[C@H](O)C[C@H]1C(=O)NCC(=O)N1CCC[C@H]1C(=O)N1C[C@H](O)C[C@H]1C(=O)NCC(=O)N1CCC[C@H]1C(=O)N1C[C@H](O)C[C@H]1C(=O)NCC(=O)NCC(N)=O)[C@@H](C)O)[C@@H](C)CC [T3-772, Ac-GPO-GAO-GPL-GIA-GIT-GAR-GLA-(GPO)4-GG-NH2] (Ac-GP[Hyp]GA[Hyp]GPLGIAGITGARGLAGP[Hyp]GP[Hyp]GP[Hyp]GP[Hyp]GG-NH2)
<4 °C	–	–	CC(=O)NCC(=O)N1CCC[C@H]1C(=O)N[C@@H](CCCNC(=N)N)C(=O)NCC(=O)N[C@@H](CC(N)=O)C(=O)N[C@@H](CCCNC(=N)N)C(=O)NCC(=O)N[C@@H](CCC(=O)O)C(=O)N[C@@H](CCCNC(=N)N)C(=O)NCC(=O)N[C@@H](CO)C(=O)N[C@@H](CCC(=O)O)C(=O)NCC(=O)N[C@@H](CO)C(=O)N1C[C@H](O)C[C@H]1C(=O)NCC(=O)N[C@@H](Cc1c[nH]cn1)C(=O)N1C[C@H](O)C[C@H]1C(=O)NCC(=O)N[C@@H](CCC(N)=O)C(=O)N1C[C@H](O)C[C@H]1C(=O)NCC(=O)N1CCC[C@H]1C(=O)N1C[C@H](O)C[C@H]1C(=O)NCC(=O)N1CCC[C@H]1C(=O)N1C[C@H](O)C[C@H]1C(=O)NCC(=O)N[C@@H](C)C(=O)N1C[C@H](O)C[C@H]1C(=O)NCC(=O)N[C@H](C(N)=O)C(C)C [T3-997, Ac-GPR-GNR-GER-GSE-GSO-GHO-GQO-GPO-GPO-GAO-GV-NH2] (Ac-GPRGNRGERGSEGS[Hyp]GH[Hyp]GQ[Hyp]GP[Hyp]GP[Hyp]GA[Hyp]GV-NH2)
23.2 °C	–	–	CC(=O)NCC(=O)N[C@@H](CCC(=O)O)C(=O)N[C@@H](CCCNC(=N)N)C(=O)NCC(=O)N[C@@H](CCC(=O)O)C(=O)N[C@@H](CCCNC(=N)N)C(=O)NCC(=O)N[C@@H](CCC(=O)O)C(=O)N[C@@H](CCCCN)C(=O)NCC(=O)N[C@@H](CCC(=O)O)C(=O)N[C@@H](CCCNC(=N)N)C(=O)NCC(=O)N[C@@H](CCC(=O)O)C(=O)N[C@@H](CCC(N)=O)C(=O)NCC(=O)N[C@@H](CCCNC(=N)N)C(=O)N[C@@H](CC(=O)O)C(=O)NCC(=O)N1CCC[C@H]1C(=O)N1C[C@H](O)C[C@H]1C(=O)NCC(=O)N1CCC[C@H]1C(=O)N1C[C@H](O)C[C@H]1C(=O)NCC(=O)N1CCC[C@H]1C(=O)N1C[C@H](O)C[C@H]1C(=O)NCC(=O)N1CCC[C@H]1C(=O)N1C[C@H](O)C[C@H]1C(=O)NCC(=O)N[C@H](C(N)=O)C(C)C [T7-2058, Ac-GER-GER-GEK-GER-GEQ-GRD-(GPO)4-GV-NH2] (Ac-GERGERGEKGERGEQGRDGP[Hyp]GP[Hyp]GP[Hyp]GP[Hyp]GV-NH2)
–	41.7 °C	–	Gly-Ala-[Hyp]
–	26.0 °C	–	Gly-Gly-Ala
–	19.7 °C	–	Gly-Gly-Phe
–	40.9 °C	6.4 °C	Gly-Pro-Ala
–	47.2 °C	~0 °C	Gly-Pro-Arg
–	41.3 °C	–	Gly-Pro-Gln
–	39.7 °C	–	Gly-Pro-Glu
–	36.8 °C	–	Gly-Pro-Lys
–	45.5 °C	–	Gly-Pro-Pro
–	35.0 °C	–	Gly-Pro-Ser
–	40.0 °C	–	Gly-Pro-Val
–	–	21 °C	Gly-Pro-[Hyp]

Compound	Tm^obs	experimentally observed Tm of Gly-Xaa1-Xaa2 tripeptide unit in a triple helix	decrease in stability relative to Gly-Pro-Hyp
Gly-Pro-Gly	–	32.9 °C	–
